Laboratory results: patent US9211242B2, “Nail-hardening cosmetic composition, use of aldehydes to harden and strengthen nails, and method for applying same” (FIABILA, priority 2009, dated 2015)

Assays:
[1] = Aging and yellowing tests; type: physicochemical
Experimental: Various aliphatic aldehydes were incorporated into a cosmetic composition, having a formulation corresponding to example 2, at concentrations respectively of 0.001%, 0.002%, 0.005% and 0.01%.
These were methylbutyraldehyde (by way of comparison), hexanal, nonanal, trans-4-decenal, undecanal and undecylenic aldehyde.
The aging, and in particular the tendency toward yellowing, of each composition were tested. The various tests performed comprise holding for one month in an oven at 45° C. and four months in an oven at 50° C., and also exposure to “SUNTEST CPS+”, i.e. in a sealed chamber, regulated at 50° C. under a 500 Watt/m^2 UV/visible lamp for 3×10 hours.
The yellowing was evaluated relative to control compositions having identical formulations, kept at room temperature (20-25° C.), in the dark, for the same duration.

fingernails = assay: In vivo tests of efficacy on a panel of people, polish applied to nails; conditions: hexanal 0.05% by weight, panel of 22, four weeks
From the text: The composition from example 1 was the subject of in vivo tests on a panel of 22 people aged at least 30 years old, over four weeks, in order to evaluate the efficacy and tolerance. […] The polish was applied under normal usage conditions (namely three applications per week).
The marks of general satisfaction with the cosmetic composition oscillated between 16.9 and 18.3/20.
The marks of general satisfaction with the cosmetic composition oscillated between 16 and 17.3/20.

nails = assay: In vivo comparison of hexanal composition with citral composition, one hand each; design: species or system people; conditions: same concentrations, panel of 22, four weeks
From the text: The composition of example 1 and also a composition 1a identical to that of example 1, but in which the hexanal has been replaced by citral, in the same concentrations, were the subject of in vivo tests on a new panel of 22 people under the same conditions as those of the tests from example 1. Each person applied the composition with hexanal to the nails of one hand, and the composition with citral to the nails of the other hand. The right hand/left hand choice was random.

[2] = 0.01% in composition, one month in an oven at 45° C., relative to controls at room temperature in the dark
[3] = 0.01% by weight in composition, aging tests relative to controls

Yellowing [1, 2]	Yellowing [1, 3]	Compound	other results
exhibited yellowing	–	C=CCCCCCCCCC=O [undecylenic aldehyde, 10-undecenal]	–
–	did not exhibit yellowing	CCCCCCCCCCC=O [undecanal]	–
–	did not exhibit yellowing	CCCCC/C=C/CCC=O [trans-4-decenal]	–

Continued, compound first:

Compound	Yellowing [1, 2]	Yellowing [1, 3]	other results
methylbutyraldehyde [reference compound]	exhibited yellowing	–	–
CCCCCC=O [hexanal]	–	did not exhibit yellowing	Subjects who noticed an overall improvement in the quality of their nails (fingernails): more than 90%; Superiority to citral in improvement of brittle nails (nails): +10%; Superiority to citral in improvement of nail hardness (nails): +8.5%; Superiority to citral in improvement of nail weakness (nails): +18%
CCCCCCCCC=O [nonanal]	–	did not exhibit yellowing	–
